This note sets out measurements from patent US12044651B2, “Sensor device and methods” (SCENTIAN BIO LIMITED, priority 2016, dated 2024).

The target of one assay is T1, Or22a (Drosophila melanogaster, UniProt P81909).
T1 sequence (P81909 1-397): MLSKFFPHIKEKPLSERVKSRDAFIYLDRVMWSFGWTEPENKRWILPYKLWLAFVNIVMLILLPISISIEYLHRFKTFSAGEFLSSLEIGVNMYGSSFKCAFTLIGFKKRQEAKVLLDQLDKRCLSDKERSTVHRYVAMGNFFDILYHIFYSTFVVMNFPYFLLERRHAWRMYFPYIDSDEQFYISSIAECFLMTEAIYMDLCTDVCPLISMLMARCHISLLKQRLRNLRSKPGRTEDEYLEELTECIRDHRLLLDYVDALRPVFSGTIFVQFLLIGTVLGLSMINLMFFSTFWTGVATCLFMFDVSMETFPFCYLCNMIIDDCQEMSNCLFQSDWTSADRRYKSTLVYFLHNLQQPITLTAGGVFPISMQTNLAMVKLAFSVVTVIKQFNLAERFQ
Kind of assay: EIS sensor, Or22a liposomes on gold electrode (Example 1). It is filed as binding. The note with it: Or22a liposomes, EIS. As to the method: (§1) Liposomes were prepared using a phospholipid solution produced by evaporating solutions containing: phosphatidylethanolamine (PE), phosphatidylserine (PS), phosphatidylcholine (PC), and cholesterol (CH) at a molar ratio of 5:3:3:1 in a small glass tube under a stream of N2 gas, then desiccating under vacuum for 1 h. […] To promote the formation of liposomes, 10 freeze/thaw steps were performed by transferring the tube from liquid nitrogen to a 40° C. water bath. Liposomes were then sized by passing the lipid solution 11 times through a 100-nm polycarbonate membrane using an Avestin LiposoFAST extruder unit (Avestin, Germany). Glycerol was added at 10% of the final volume and aliquots at 10 mg/mL were snap frozen in liquid nitrogen and stored at -80° C. Prior to their use, liposomes were defrosted on ice and then destabilized by incubating with 0.2% CHAPS for 15 min at room temperature. Then 200 μg of purified odorant receptor^14 was added to 1 mg of liposomes and rotated at 10 rpm for 1 h at room temperature. […] The Bio-Beads were removed after each incubation period. The OR integrated liposomes were pelleted by centrifugation at 100,000 g for 1 h, and were resuspended in 500 μL of rehydration buffer. Integration of OrXs into liposomes was assessed by density gradient ultracentrifugation (DGU) using Accudenz (Accurate Chemical & Scientific Corporation, USA). […] The sample was then centrifuged at 100,000 g for 4 h at 4° C. Liposomes will float to the top of the gradient after Accudenz DGU due to their low density. 1.3 Electrode Cleaning Gold disk (2 mm) electrodes were cleaned with polishing with Alumina paste for 2 minutes, ultra-sonicated in pure ethanol and then Milli-Q water for 5 minutes each. […] Charge transfer resistance (Rct) of electrodes were calculated by fitting obtained data to a Randles' equivalent circuit [Rs+CPE/(Rct+W)] comprising of a solution resistance (Rs) in series with a constant phase element (CPE) and in parallel with charge transfer resistance (Rct) and Warburg diffusion element. […]

Another assay has as its target T2, Or10a (Drosophila melanogaster, UniProt Q9VYZ1).
T2 sequence (Q9VYZ1 1-406): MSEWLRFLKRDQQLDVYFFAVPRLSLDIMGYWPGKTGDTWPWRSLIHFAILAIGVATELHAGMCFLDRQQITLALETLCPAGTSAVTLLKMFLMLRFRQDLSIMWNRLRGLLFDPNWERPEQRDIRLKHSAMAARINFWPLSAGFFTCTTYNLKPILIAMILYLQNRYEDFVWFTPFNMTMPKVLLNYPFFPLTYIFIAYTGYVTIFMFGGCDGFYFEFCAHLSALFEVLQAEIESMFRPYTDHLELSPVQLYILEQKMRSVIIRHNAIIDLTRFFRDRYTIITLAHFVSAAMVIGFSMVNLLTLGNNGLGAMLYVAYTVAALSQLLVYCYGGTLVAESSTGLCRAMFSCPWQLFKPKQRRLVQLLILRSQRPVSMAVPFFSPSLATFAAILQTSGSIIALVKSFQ
The assay can be described thus: EIS sensor, Or10a liposomes on gold electrode (Example 1). It is filed as binding. The note with it: Or10a liposomes, EIS. As to the method: as §1

For orientation: EC50 means the midpoint of the concentration-response curve. Read a low EC50 as a more potent agent. `CCCCCC(=O)OC` [methyl hexanoate]: on Or22a, the EC50 is roughly 10 nM. For the same compound, the “Sensitivity limit (lowest detectable concentration)” value at Or22a (signal/noise >3) came to 280 pM.
As to `COC(=O)c1ccccc1O` [methyl salicylate], the EC50 on Or10a is roughly 1 nM. Also, on Or10a (signal/noise >3), the “Sensitivity limit (lowest detectable concentration)” value amounted to 330 pM.
